Test: Human HepG2 cell viability assay in 384 well format
Assay type: toxicity, cell-based
Parameters: dose 125 nL, time 70.5 hour; cytotoxicity at 70.5 h: concentration not given beside the values
Settings: HepG2 cells, read-out: Inhibition

Point of comparison: `c1cc(CN2CCO[C@H]3[C@H](OCC4CCCC4)CC[C@@H]32)ccn1`, cytotoxicity at 70.5 h -5.29%. Against it:
- CC(C)OC[C@H]1CCC[C@]12CN(S(=O)(=O)c1cn(C)cn1)CCO2 — higher, -4.1%
- O=c1cc(Cn2ccnc2)nc2n1CCCN(S(=O)(=O)C1CC1)C2 — lower, -11.3%
- Cc1cc(C(=O)N2CC[C@H]3[C@H]2CCN3S(C)(=O)=O)c(C)o1 — higher, 0.739%
- CN(C)C(=O)CN1CCc2ncnc(C3CC3)c2CC1 — higher, 2.76%
- CC(C)NC(=O)N1CC[C@@H]2CN(S(C)(=O)=O)CCO[C@@H]2C1 — higher, -4.96%
- CO[C@H]1CO[C@@]2(CCCN(S(=O)(=O)c3ccccc3)C2)C1 — lower, -10.1%
- O=S(=O)(c1ccccc1)N1CC[C@]2(C[C@@H](OCC3CC3)CO2)C1 — lower, -10.2%
- Cn1cc(CN2CCCC23CCN(S(C)(=O)=O)CC3)cn1 — higher, -2.11%
- Cc1cc(CN2CCC3(CC2)C(=O)NCCN3CC2CC2)oc1C — higher, 9.39%
- C[C@H]1C[C@@H]2CCN(C(=O)c3cccn3C)C[C@H]2O1 — lower, -12.7%
- CN(C)CCN1CCC2(CC1)CN(c1cccnc1)C(=O)CO2 — lower, -13.5%
- O=C(c1cnccn1)N1CCc2onc(CN3CCOCC3)c2C1 — higher, 23.2%
- CNC(=O)c1nc2c(s1)CCN(C(=O)Cc1ccc(OC)cc1)CC2 — higher, 20.5%
- Cc1cc(C(=O)N2CCc3ncc(CN4CCOCC4)n3CC2)no1 — higher, 28.9%
- CC(C)CN1C[C@H]2C[C@H](C(=O)Nc3cccnc3)[C@@H](C1)O2 — higher, -4.05%
- Cc1cc(C(=O)N2CC[C@@H]3CN(c4ncccn4)CCO[C@@H]3C2)c(C)o1 — lower, -12.2%
- Cn1cc(C2COC3(CCN(C(=O)c4ccc(F)cc4)CC3)C2)cn1 (stereo unspecified) — higher, -2.41%
- Cc1nnc([C@@H]2CC[C@@H]3[C@@H](CCN3S(=O)(=O)c3cccnc3)O2)o1 — higher, 0.577%
- CCN1C[C@H]2C[C@H](C(=O)NCc3cccnc3)[C@@H](C1)O2 — higher, 3.07%
- CC(C)CCN1Cc2c(C(=O)O)ncn2-c2ccccc2S1(=O)=O — higher, 30.1%
- Cc1nc2c(c(NC3CC3)n1)CCN(C(=O)C(C)(C)O)CC2 — higher, 2.5%
- O=C(c1ccncc1F)N1CCc2ncnc(-c3ccncc3)c2CC1 — higher, 6.15%
- Cc1nc(CN2C(=O)CC[C@@H]3[C@H]2CCN3C(=O)NC2CC2)cs1 — higher, 21.8%
- O=C(C1CCOCC1)N1C[C@@H]2[C@@H](C1)OCC(=O)N2CC1CC1 — lower, -6.04%
- CC(=O)NCC(=O)N1Cc2nccn2CC(CN2CCCC2)C1 (stereo unspecified) — higher, 0.0844%
- CC(C)CN1Cc2c(C(=O)N(C)C)ncn2-c2ccccc2S1(=O)=O — lower, -6.58%
- CN(C)C(=O)COC1COC2(CCN(S(C)(=O)=O)CC2)C1 (stereo unspecified) — lower, -6.01%
- Cc1occc1C(=O)N1CCc2c(COCC3CC3)cncc2C1 — higher, -2.87%
- O=C(CC1CC1)NCc1cn2c(n1)CN(C(=O)c1cccnc1)CC2 — lower, -7.69%
- COCCC(=O)N1CCC2(COCc3cnc(N4CCOCC4)nc32)C1 (stereo unspecified) — lower, -15.1%
- CC(=O)N1CC[C@@H]2CN(C(=O)c3ccco3)CCO[C@@H]2C1 — lower, -29.3%
- O=C(c1ccsc1)N1CCN2C[C@H](OCc3cccnc3)C[C@H]2C1 — lower, -13.4%
- Cn1cccc1C(=O)N1CCCn2nc(CCC(=O)NC3CC3)cc2C1 — higher, 9.42%
- COc1cccc(CC2CN(C3CCC3)CCO2)c1 (stereo unspecified) — higher, 0.0358%
- CC(C)c1cc(C(=O)N2CCOC3(CCCC3)C2)no1 — lower, -21.7%
- COCC(=O)N1CCCC(C(=O)NCc2cc(CC(C)C)on2)C1 (stereo unspecified) — higher, 27%
- O=C(NC1CC1)c1ccnc(N2CCOC(c3ccc(Cl)cc3)C2)c1 (stereo unspecified) — higher, 7.4%
- CC1(c2ccccc2)CCCN(Cc2cncn2C2CCCC2)C1 (stereo unspecified) — lower, -13.6%
- Cc1nccc(N2CCCC(c3nnc(Cn4ccnc4C)n3C)C2)n1 (stereo unspecified) — higher, 16.3%
- O=c1cc(-c2cc(O)cc(CCC3CCCCN3)c2)cc[nH]1 (stereo unspecified) — lower, -6.48%
- CNc1ncccc1C(=O)N1CCC2(CCN(C)C2)CC1 — higher, 2.78%
- Cc1nc(N[C@H]2COC[C@@H]2N2CCCCC2)c2c(C)nn(C)c2n1 — higher, -4.88%
- CCn1nc(C)cc1C(=O)N1C[C@@H](CN(C)C)[C@@H](CO)C1 — higher, -2.98%
- COc1ncccc1C(=O)N1CCc2c(ncnc2N2CCOCC2)C1 — higher, -3.85%
- COCC1CCCN(C(=O)c2ccc(N(C)Cc3cnn(C)c3)nc2)C1 (stereo unspecified) — higher, 26%
- CC(C)[C@@H]1CN(Cc2ccccc2C#N)C[C@H]1NC(=O)N(C)C — higher, -1.2%
- COCc1cccc(C(=O)N2C[C@H]3CC[C@@H]2CN(Cc2cscn2)C3)n1 — higher, 34.5%
- CCC(NC(=O)c1cc(NC(C)=O)ccc1Cl)c1cc(C)ccn1 (stereo unspecified) — higher, 9.03%
- CCN(C)C(=O)c1coc(COc2ccccc2)n1 — higher, -4.16%
- CC(=O)c1cnc(N(C)Cc2cnc3ccccc3n2)nc1C — lower, -5.98%
- Cc1nc(C(=O)NCCS(=O)(=O)N2CCCC2)cs1 — higher, 13.7%
- CN(CCc1ccccc1)Cc1nc(Cc2cccc(F)c2)no1 — higher, 0.246%
- CC(C)(C)c1ccn(C2(C(=O)O)CCN(c3ccncc3F)CC2)n1 — lower, -8.89%
- O=S1(=O)COCCN1CCOc1ccccc1 — higher, 17.3%
- COc1ccccc1CN(Cc1cccnc1)Cc1c[nH]c(C)n1 — higher, 8.36%
- c1cc2c(cc1-c1noc3c1CN(C1CCSC1)CC3)OCO2 (stereo unspecified) — lower, -12.7%
- CS(=O)(=O)NCCC(=O)N1Cc2cnc(-c3ccccc3)nc2C1 — higher, 2.41%
- O=C(c1cc(Cl)ccc1OC1CCN(C2CCCC2)CC1)N1CCCO1 — higher, 11.8%
- Cc1ccc(C(=O)N2CCSCC2)cc1N1CCNC1=O — lower, -5.73%
- O=C(NCCc1ccncc1)c1ccc(N2CCOCC2)cc1 — higher, 4.27%
- Cc1nc(C)n(CCCNC(=O)C(C)n2ccnc2C(C)C)n1 (stereo unspecified) — lower, -5.67%
- Cc1nn(C)c2nc(-c3ccccn3)nc(NC[C@@H]3CCCO3)c12 — higher, 2.37%
- c1cncc(OC[C@@H]2CCC[C@@]23CNCCO3)c1 — higher, 14.3%
- CN(C)Cc1cc(=O)n2c(n1)CN(S(=O)(=O)C1CC1)CCC2 — lower, -6.08%
- CN(C)C(=O)CN1CCc2ncnc(NC3CCC3)c2CC1 — higher, 0.00388%
- Cc1cc(C)cc(CN2C[C@@H]3OCCN(CC(=O)N(C)C)[C@@H]3C2)c1 — higher, -0.77%
- Cc1ncnc2c1CCN(CC(=O)N(C)C)CC2 — higher, -5.19%
- Cc1cccc(S(=O)(=O)N2CC[C@H]3CO[C@H](CN(C)C)[C@H]3C2)c1 — lower, -6.86%
- CN(C)C(=O)CC1CC2(CCN(CC3CC3)CC2)c2cc(F)ccc21 (stereo unspecified) — higher, 35.7%
- CCc1cnc(N2CCC3(CC2)CN(c2cccnc2)C(=O)CO3)nc1 — higher, 23.8%
- CS(=O)(=O)NC[C@]12COC[C@H]1CN(CC1CCCC1)C2 — lower, -12.8%
- CCC1=N[C@@]2(CC[C@@H]3CN(Cc4ccc(Cl)cc4)C[C@@H]32)C(=O)N1C — lower, -15.2%
- Cc1ccc(C(=O)N2CCC3(CCN(C(=O)c4cccnc4)C3)CC2)o1 — lower, -19.3%
- CCN(CC)Cc1cn2c(n1)CN(C(=O)c1cnccn1)CC2 — lower, -13.4%
- Cc1cc(CN2CC[C@H]3C[C@H](C(=O)N4CCC(C)CC4)O[C@H]3C2)no1 — lower, -9.04%
- O=C(c1ccc(F)cc1)N1C[C@H]2CCC[C@@]2(COCc2ccccn2)C1 — lower, -15.6%
- O=C(NC1CC1)[C@@H]1CCO[C@@H]2CCN(Cc3ccsc3)C[C@H]21 — higher, -2.46%
- Cc1ccc(C(=O)N2C[C@@H]3OCCN(CCN4CCCC4)[C@@H]3C2)cn1 — higher, -4.09%
- CC(C)OCc1ncn2c1CN(Cc1cccs1)CCC2 — higher, 1.83%
- CN1C(=O)C2(CCN(CC3CC3)CC2)c2ccccc21 — higher, -2.61%
- O=C(N1CCCC1)N1Cc2nccn2CC(CN2CCCC2)C1 (stereo unspecified) — lower, -8.56%
- CC(C)OCc1ncn2c1CN(Cc1ccc(F)cc1)CCC2 — higher, -3.8%
- COCCN1CCC2(COCc3cnc(N4CCOCC4)nc32)C1 (stereo unspecified) — higher, 28.1%
- CN(C)C(=O)NC1COC2(CCN(Cc3ccccc3)CC2)C1 (stereo unspecified) — higher, 27.7%
- CN(C)C(=O)c1cnc2n1CCN(Cc1ccccc1)C2 — lower, -15.3%
- CN(C)[C@@H]1CCN(C(=O)Cc2ccc(F)cc2)[C@H]1Cc1cnn(C)c1 — lower, -10.4%
- Cc1ccc(CN2CCn3c(C(=O)N(C)C)cnc3C2)s1 — lower, -20.4%
- CC(C)CN1CCC2(C1)CN(c1ncccn1)C2 — lower, -11.9%
- COCCN1CCC2(CCCN(c3ncccn3)C2)C1 (stereo unspecified) — lower, -12.6%
- CN(C)[C@@H]1CCN(C(=O)NC2CCCC2)[C@H]1Cc1cnn(C)c1 — lower, -15.8%
- Cn1cc(CN2CCC[C@]3(C[C@@H](Oc4ncccc4F)CO3)C2)cn1 — lower, -6.45%
- COc1ncccc1CN1C[C@H]2CCN(C(C)C)C[C@H]2C1 — higher, -4.86%
- Cc1nc(CN2CCN3C[C@H](Oc4cncnc4)C[C@H]3C2)cs1 — higher, 5.24%
- Cn1ccc(CN2CCCC23CCN(Cc2cccc(F)c2)CC3)n1 — higher, 0.351%
- Cn1ccc(CN2CCCC23CCN(Cc2nccn2C)CC3)n1 — higher, -2.05%
- Cn1ccnc1CN1CCCC2(CCN(CC3CCCO3)CC2)C1 (stereo unspecified) — higher, 4.14%
- CN(C)CCN1CCO[C@@H]2CN(C(=O)c3cccs3)CC[C@@H]2C1 — lower, -16.4%
- CC(C)CN1C[C@H]2CCN(Cc3cccnc3)CC[C@H]2S1(=O)=O — lower, -10.9%
- CC(C)N1Cc2c(C(=O)N3CCOCC3)nn(C)c2C1 — lower, -13.7%
- O=C(c1ccnnc1)N1C[C@@H]2OCCN(CCN3CCCC3)[C@@H]2C1 — higher, 4.4%
- Cc1ccc(CN2CC[C@H]3[C@@H]2CCC(=O)N3CCN2CCCC2)s1 — higher, 11.4%
- CCC(=O)N1Cc2nccn2CC(CN(C)Cc2cccnc2)C1 (stereo unspecified) — lower, -17.9%
- O=C(c1cccc(F)c1)N1CCN2C[C@H](OCc3cccnc3)C[C@H]2C1 — lower, -19%
- FC1(F)CCN(Cc2ccncc2)CC12CCN(Cc1ccccn1)C2 (stereo unspecified) — higher, 14.3%
- c1ccc(NCc2cn3c(n2)CN(Cc2cccnc2)CC3)nc1 — lower, -10%
